Results: patent US4361673A, “Polypeptide compositions” (American Home Products Corporation, priority 1981, dated 1982)
Structures can show the parent of a compound that is named as a salt. Non-standard residues stand in square brackets, D forms with d. Residues, ends and D or L forms follow the SMILES beside them. No end group written: not given here. pGlu = O=C1CC[C@@H](C(=O)O)N1

Assays:
[1] = tested on: T lymphocytes isolated from spleens of male CBA/J or NZB mice; test: T lymphocyte proliferation, 3H-thymidine uptake; type: cell-based
Method: The activity of the compounds of Examples is determined according to the following procedure:
T lymphocytes are isolated from spleens of male CBA/J or NZB mice. Cell homogenates are prepared in Hank's balanced salt solution (HBSS). After removal of larger particles and repeated washing of the cells in HBSS they are suspended in minimum essential medium (MEM) and passed through a glass wool column to remove macrophages. The cells are then incubated on a nylon wool column at 37° C., 95% air, 5% CO2, for 45 minutes. The non-adherant T lymphocytes are then eluted from the column, counted, and adjusted to 20×10^6 cells/ml. 50 μl. of cells are cultured (37° C., 95% air, 5% Co2) with compound, for 48 hours before addition of 0.5 μCi. of 3H-thymidine for the last 16 hours of culture. The total volume of the culture system is 200 μl. The cells are then harvested on a multiple automatic sample harvester (Mash II), the glass fiber filter disks placed in 10 ml. of xylene base scintillation fluid, and counted for 1 minute in a liquid scintillation counter. Results are reported as CPM±SE. Levamisole is used as the standard. Comparisons are made between counts obtained with control cultures and cultures containing compound and a determination made as to whether the compounds are active at the dosage tested.

[2] = several biological models; Low et al.; cited from earlier work
[3] = 1.5 ng/culture, control (0 ng) 49,519 ± 4048
[4] = 6.0 ng/culture, control (0 ng) 49,519 ± 4048
[5] = 25.0 ng/culture, control (0 ng) 49,519 ± 4048
[6] = 100.0 ng/culture, control (0 ng) 49,519 ± 4048

Q: With CC(=O)O.CC(=O)O.CC(=O)O.CC(C)[C@H](NC(=O)[C@H](CCC(=O)O)NC(=O)[C@H](CCCCN)NC(=O)[C@@H](N)CCCCN)C(N)=O [H--Lys--Lys--Glu--Val--NH2, L-lysyl-L-lysyl-L-glutamyl-L-valineamide, triacetate salt] (H-KKEV-NH2) as the molecule, how does the “3H-Thymidine Uptake CPM + S.E.” value [1, 3] read?
A: Its value is 72,713 ± 3633 CPM.

Q: What about the “3H-Thymidine Uptake CPM + S.E.” value [1, 4] of the same molecule?
A: Its value is 77,979 ± 3760 CPM.

Q: And the “3H-Thymidine Uptake CPM + S.E.” value [1, 5]?
A: Its value is 62,712 ± 6004 CPM.

Q: What about the “3H-Thymidine Uptake CPM + S.E.” value [1, 6] of the same molecule?
A: The value was 51,021 ± 5527 CPM.

Q: With CC(C)[C@H](NC(=O)[C@H](CCC(=O)O)NC(=O)[C@H](CCCCN)NC(=O)[C@H](CCCCN)NC(=O)[C@@H]1CCC(=O)N1)C(N)=O [p-Glu--Lys--Lys--Glu--Val--NH2, L-(5-oxoprolyl)-L-lysyl-L-lysyl-L-α-glutamyl-L-valinamide, diacetate salt] ([pGlu]KKEV-NH2) as the molecule, how does the “3H-Thymidine Uptake CPM + S.E.” value ([1]; 1.5 ng/culture, control (0 ng) 9,876 ± 951) read?
A: The value was 23,736 ± 3417 CPM.

Q: What about the “3H-Thymidine Uptake CPM + S.E.” value ([1]; 6.0 ng/culture, control (0 ng) 9,876 ± 951) of the same molecule?
A: The value was 31,236 ± 2004 CPM.

Q: And the “3H-Thymidine Uptake CPM + S.E.” value ([1]; 25.0 ng/culture, control (0 ng) 9,876 ± 951)?
A: The value was 26,026 ± 3537 CPM.

Q: And the “3H-Thymidine Uptake CPM + S.E.” value ([1]; 100.0 ng/culture, control (0 ng) 9,876 ± 951)?
A: Its value is 27,830 ± 1749 CPM.

Q: Which “activity relative to the parent thymosin Fraction 5” value [2] does the source give for “thymosin α1 (SDAAVDTSSEITTKDLKEKKEVVEEAEN; ends and bridges not checked; UniProt P06454 2-29, looked up)” here?
A: Its value is 10-1,000 times.

Q: What does the source list for CC(C)[C@H](NC(=O)[C@H](CCC(=O)O)NC(=O)[C@H](CCCCN)NC(=O)[C@@H](N)CCCCN)C(=O)O [H-- Lys--Lys--Glu Val--OH, L-Lysyl-L-lysyl-L-glutamyl-L-valine, diacetate salt] (H-KKEV-OH)?
A: 3H-Thymidine Uptake CPM + S.E. ([1]; 2.5 ng/culture, control (0 ng) 2,789 ± 148): 3,931 ± 140 CPM; 3H-Thymidine Uptake CPM + S.E. ([1]; 10 ng/culture, control (0 ng) 2,789 ± 148): 3,745 ± 172 CPM; 3H-Thymidine Uptake CPM + S.E. ([1]; 25 ng/culture, control (0 ng) 2,789 ± 148): 4,397 ± 346 CPM; 3H-Thymidine Uptake CPM + S.E. ([1]; 100 ng/culture, control (0 ng) 2,789 ± 148): 4,235 ± 284 CPM

Q: For NCCCC[C@H](NC(=O)[C@H](CCCCN)NC(=O)[C@@H]1CCC(=O)N1)C(=O)N[C@@H](CCC(=O)O)C(N)=O [p-Glu--Lys--Lys--Glu--NH2, L-(5-oxoprolyl)-L-lysyl-L-lysyl-L-α-glutamine, diacetate salt] ([pGlu]KKE-NH2), which “3H-Thymidine Uptake CPM + S.E.” value [1, 3] is on record?
A: Its value is 73,407 ± 3333 CPM.

Q: And the “3H-Thymidine Uptake CPM + S.E.” value [1, 4]?
A: Its value is 78,727 ± 7102 CPM.

Q: And the “3H-Thymidine Uptake CPM + S.E.” value [1, 5]?
A: Its value is 73,932 ± 6944 CPM.

Q: And the “3H-Thymidine Uptake CPM + S.E.” value [1, 6]?
A: Its value is 67,489 ± 5190 CPM.

Q: For c1ccc([C@H]2CN3CCSC3=N2)cc1 [Levamisole, reference compound], which “3H-Thymidine Uptake CPM + S.E.” value ([1]; 5 ng/culture, 48 h culture, 3H-thymidine last 16 h, control 49,519 ± 4048) is on record?
A: The value was 70,353 ± 1561 CPM.
